Source: patent US10729636B2, “Compositions comprising peptide [sequence]” (NURITAS LIMITED, priority 2016, dated 2020)

Columns and labels:
Assay type in all cases: cell-based
[1] = system: mTOR phosphorylated at Ser2448; experiment: Muscle protein synthesis (Phospho-mTOR assay); conditions: HSkMC cells, 2 hours, FIG. 9
Procedure: Phospho-mTOR sandwich ELISA detects endogenous levels of phosphorylated mTOR at Ser2448.
Day 1: Seed HSkMC cells in 500 uL/well of HSkMC Growth Medium and let them adhere to the wells for 16-24 h.
Day 2: Remove growth medium and add 500 uL/well of HSkMC Differentiation Medium to let them differentiate for 5-7 days.
Day 7: Treat cells for 2 hours. Collect cell lysates in lysis buffer.
Day 8: Perform BCA (protein determination) and run the assay. In a first incubation step, a mTOR antibody coated onto the ELISA microwells is used to capture mTOR (phospho and non-phospho) from the cell lysates. Then, following extensive washing, a specific phospho-mTOR detection antibody is added to detect only the phospho-mTOR protein captured before. Finally, a HRP-linked antibody is used to recognise the detection antibody and through the addition of TMB (HRP substrate) develop color proportionally to the quantity of mTOR phosphorylated at Ser2448.

[2] = system: Human Dermal Fibroblasts (HDF); experiment: Cell proliferation assay (BrDu), HDF; conditions: HDF cells; 5, 0.5 or 0.05 μg/ml, 24 h; compared with untreated control; FIG. 1
Procedure: (§1) BrDu is incorporated into newly synthesised DNA strands of actively proliferating cells. Following partial denaturation of double stranded DNA, BrDu is detected immunochemically allowing the assessment of the population of cells which are synthesizing DNA.
Human Dermal Fibroblasts (HDF—Sigma 10605a) were seeded in a 96 well plate at 10,000 cells per well in DMEM containing 10% fetal calf serum (FCS), 1% Pen/strep, 1% L-glutamine and allowed to adhere for 24 h.
(§2) Following the initial 24 h incubation the cells were incubated with 5 μg/ml, 0.5 μg/ml or 0.05 μg/ml synthetic peptide for 24 h respectively.
(§3) After 18 h incubation with synthetic peptides 20 μl BrDu reagent was added to each well. At 24 h incubation the cells were fixed and the amount of […] was measured using the BrdU Cell Proliferation Assay, all steps were carried out according to the manufacturer's instructions.

[3] = system: Human Dermal Fibroblasts (HDF); experiment: Elastin production assay (ELISA); conditions: 5, 1 or 0.1 μg/ml, 96 h, compared with untreated control, FIG. 4
Procedure: Elastin is a highly elastic protein in connective tissue and allows many tissues in the body to resume their shape after stretching or contracting. […] Human Elastin ELISA kit assay is designed to measure Elastin in tissue or protein/peptide compositions.
Human Dermal Fibroblasts (HDF) were seeded in 24 well plates at 50,000 cells per well in DMEM containing 10% fetal calf serum (FCS), 1% Pen/strep, 1% L-glutamine and allowed to adhere for 24 h.
Following the initial 24 h incubation the cells were incubated with 5 μg/ml, 1 μg/ml or 0.1 μg/ml synthetic peptide for 96 h respectively.
After treatment, the cells were lysed using cell lysis buffer and sonicated for 10 seconds. The lysed cells were centrifuged and the supernatant was removed from each sample. Total protein concentration was determined using a BCA assay. Each sample was diluted in assay buffer to contain 10 μg total protein. 50 μl of each sample was then assayed using the […] Human Elastin ELISA kit. All steps were carried out according to the manufacturer's instructions.

[4] = system: HACAT cells; experiment: Cell proliferation assay (BrDu), HACAT; conditions: compared with untreated control, FIG. 2
Procedure: as §1, §2, §3
This experiment was then repeated using HACAT cells.

[5] = system: protein synthesis; experiment: Puromycin ELISA (protein synthesis); conditions: FIG. 10
Description: Puromycin is an aminonucleoside antibiotic produced by the bacterium Streptomyces alboniger. It is a structural analogue of aminoacyl-transfer RNA and, as such, can be incorporated into elongating peptide chains via the formation of a peptide bond. However, whereas aminoacyl-tRNAs contain a hydrolyzable ester bond, puromycin hasn't it in the equivalent position. Thus, the binding of puromycin to a growing peptide chain prevents a new peptide bond from being formed with the next aminoacyl-tRNA. As a consequence, puromycin binding results in the termination of peptide elongation, and leads to the release of the truncated puromycin bound peptide from the ribosome. […] This later property makes puromycin a potential tool for the measurement of changes in protein synthesis rates.
1. Dispense […] Coating Buffer per well in the required number of wells in a 96 well ELISA plate. Dilute and mix the Protein extract (in the same buffer the sample is in) to […]. Immediately dispense 1 μl/well into plate.
2. Incubate the plate at 4° C. for 16-24 h.
3. Vigorously shake out contents. Wash 1× with 200 ul PBS.
4. Add 200 μl Blocking Solution (5% BSA in PBS). Incubate over the day 4-6 h at RT.
5. Dilute Puromycin antibody in Blocking solution and incubate overnight at 4° C.
8. Wash 2× with 200 ul PBS
9. […]
12. Add Stop solution and read the plate at 450 nm.

WKDEAGKPLVK [SEQ ID NO. 1]
increase: mTOR ([1]; 0.5 μg/ml) | mTOR ([1]; 5 μg/ml) | cell proliferation [2] | elastin production [3] | cell proliferation [4] | protein synthesis [5]
